Values quoted from earlier work as cited in patent publication US11400105B2, “Anti-inflammatory properties of marine lipid compositions” (AKER BIOMARINE ANTARCTIC AS, priority 2006, dated 2022).

Legend:
pre-term infants = settings: for absorption: ref [8]
[1] = ethyl esters (4 g/d); ref [12]

absorption (pre-term infants) | absorption of DHA from egg lecithin (pre-term infants; ref [7]) | absorption of DHA from triglycerides (pre-term infants; ref [7]) | relative absorption based on the area under the concentration curve [1] | relative absorption compared to oleic acid calculated from peak concentrations [1] | Structure (SMILES)
75% | – | – | – | – | CCCCCC=CCC=CCC=CCC=CCCCC(=O)O [AA, 5,8,11,14-eicosatetraenoic acid]
62% | 90% | 80% | 93% | 100% | CC/C=C\C/C=C\C/C=C\C/C=C\C/C=C\C/C=C\CCC(=O)O [DHA, 4,7,10,13,16,19-docosahexanoic acid]
– | – | – | 91% | 94% | CCC=CCC=CCC=CCC=CCC=CCCCC(=O)O [EPA, 5,8,11,14,17-eicosapentaenoic acid]
